Reference: patent US20220290122A1 (Whitehead Institute for Biomedical Research, priority 2019, published 2022)

System: MCART1-null Jurkat cells
Test: Cell proliferation assay with metabolite supplementation (metabolite rescue)
Type: cell-based, human
Details: RPMI media; 1 mM pyruvate and 100 μg/ml uridine, 1 mM formate or 0.1 mM/16 μM hypoxanthine/thymidine added at the beginning of the culture period; FIG. 5M
Procedure: Unless otherwise indicated, Jurkat and K562 cells were cultured in RPMI (Life Technologies) supplemented with 10% Inactivated Fetal Calf Serum (IFS, Sigma and Gemini), 2 mM glutamine, and penicillin/streptomycin. HeLa, HEK-293T, and Ben cells were cultured in DMEM (Life Technologies) supplemented with 10% IFS and penicillin/streptomycin. […] To compare proliferation of cells in glucose to proliferation in galactose, RPMI without glucose (Life Technologies) was supplemented with dialyzed IFS and either 10 mM glucose or galactose. All cell lines were maintained at 37° C. and 5% CO2.
10,000 cells per well were seeded into 96-well plates in triplicate. Cell titer glo reagent (Promega) was added to one plate 1 hour after seeding and luminescence was measured, while a second plate was read-out 4 days after seeding. Number of doublings in 4 days was determined by calculating the loge fold-change in signal between day 0 and 4. For cell counting experiments, 100,000 cells/ml were seeded in a 6-well plate in triplicates and counted immediately after seeding and from then on every 24 hours for 5 sequential days.

Question: With O=CO [formate] as the compound, how does the “rescue of the proliferation defect of MCART1-null cells by addition of metabolites to the media” value read?
Answer: not rescued
